These results are taken from patent publication US20090104598A1, “Dopamine D2 receptor gene variants” (CENTRE FOR ADDICTION AND MENTAL HEALTH, priority 2006, published 2009).

Each structure is given as a SMILES string.

One data set is described as follows: clinical. Particulars: human, in vivo. The source says: Thus, % Score Change=(6 Month Score−Baseline Score)/(Baseline Score).
For data set [1] the following is noted: treatment refractory patients; Miller 1996; cited from earlier work.

`CN1CCN(C2=Nc3cc(Cl)ccc3Nc3ccccc32)CC1` [clozapine] came in with a concentration at 6 month in “clinical” of 399 ng/mL. For the same molecule, the “blood clozapine threshold level that increases likelihood of clinical response” value in data set [1] is 350 ng/mL.
